# Results published in ChEMBL document CHEMBL1201862, “PubChem BioAssay data set” (2004).
#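 Each compound was tested at five concentrations against cells in 96-well plates for 48 hours. Here, GI50 denotes the concentration required for 50% inhibition of growth.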 The source made the active and inactive calls. Rule as the data show it: active = GI50 up to about 1.1 µM and inactive = higher.
# Key:
# Assay in all cases: DTP human tumour cell line panel, 48 h
# NCI-H23 = system: NCI-H23
# MCF7 = system: MCF7
# U-251 = system: U-251
# NCI-H522 = system: NCI-H522
# SW-620 = system: SW-620
# HCT-15 = system: HCT-15
# 786-0 = system: 786-0
# SK-MEL-5 = system: SK-MEL-5
# BT-549 = system: BT-549
# MOLT-4 = system: MOLT-4
# HOP-62 = system: HOP-62
# HL-60 = system: HL-60
# UO-31 = system: UO-31
# A549 = system: A549
# UACC-62 = system: UACC-62
# CCRF-CEM = system: CCRF-CEM
# UACC-257 = system: UACC-257
# NCI/ADR-RES = system: NCI/ADR-RES
# NCI-H460 = system: NCI-H460
# EKVX = system: EKVX
# M14 = system: M14
# OVCAR-8 = system: OVCAR-8
# HOP-92 = system: HOP-92
# PC-3 = system: PC-3
# SNB-75 = system: SNB-75
# KM12 = system: KM12
# HCC 2998 = system: HCC 2998
# SK-MEL-28 = system: SK-MEL-28
# T47D = system: T47D
# TK-10 = system: TK-10
# OVCAR-5 = system: OVCAR-5
# OVCAR-3 = system: OVCAR-3
# COLO 205 = system: COLO 205
# SNB-19 = system: SNB-19
# SF-268 = system: SF-268
# Hs-578T = system: Hs-578T
# RXF 393 = system: RXF 393
# A498 = system: A498
# HCT-116 = system: HCT-116
# K562 = system: K562
# OVCAR-4 = system: OVCAR-4
# SN12C = system: SN12C
# LOX IMVI = system: LOX IMVI
# NCI-H226 = system: NCI-H226
# SF-539 = system: SF-539
# DU-145 = system: DU-145
# SF-295 = system: SF-295
# RPMI-8226 = system: RPMI-8226
# MDA-MB-231 = system: MDA-MB-231
# SK-MEL-2 = system: SK-MEL-2
# ACHN = system: ACHN
# HT-29 = system: HT-29
# SK-OV-3 = system: SK-OV-3
# IGROV-1 = system: IGROV-1
# Malme-3M = system: Malme-3M
# MDA-N = system: MDA-N
# CAKI-1 = system: CAKI-1
# MDA-MB-435 = system: MDA-MB-435
structure (smiles),measurement,setting,value
CCOc1cc2c(cc1O)C(=O)C[C@@H]1[C@@H]2CC[C@]2(C)[C@@H](O)CC[C@@H]12,GI50,NCI-H23,330 nM (active)
same,GI50,MCF7,132 nM (active)
same,GI50,U-251,173 nM (active)
same,GI50,NCI-H522,50.8 nM (active)
same,GI50,SW-620,126 nM (active)
same,GI50,HCT-15,55.6 nM
same,GI50,786-0,177 nM (active)
same,GI50,SK-MEL-5,63.4 nM (active)
same,GI50,BT-549,150 nM (active)
same,GI50,MOLT-4,172 nM (active)
same,GI50,HOP-62,213 nM (active)
same,GI50,HL-60,185 nM (active)
same,GI50,UO-31,482 nM (active)
same,GI50,A549,877 nM (active)
same,GI50,UACC-62,68.2 nM (active)
same,GI50,CCRF-CEM,162 nM (active)
same,GI50,UACC-257,1210 nM (inactive)
same,GI50,NCI/ADR-RES,95.5 nM (active)
same,GI50,NCI-H460,98.2 nM (active)
same,GI50,EKVX,10100 nM (inactive)
same,GI50,M14,385 nM (active)
same,GI50,OVCAR-8,321 nM (active)
same,GI50,HOP-92,9060 nM (inactive)
same,GI50,PC-3,2710 nM (inactive)
same,GI50,SNB-75,106 nM (active)
same,GI50,KM12,2690 nM (inactive)
same,GI50,HCC 2998,1360 nM (inactive)
same,GI50,SK-MEL-28,190 nM (active)
same,GI50,T47D,130 nM (active)
same,GI50,TK-10,> 13400 nM (inactive)
same,GI50,OVCAR-5,20600 nM (inactive)
same,GI50,OVCAR-3,92 nM (active)
same,GI50,COLO 205,20500 nM (inactive)
same,GI50,SNB-19,189 nM (active)
same,GI50,SF-268,308 nM (active)
same,GI50,Hs-578T,163 nM (active)
same,GI50,RXF 393,1590 nM (inactive)
same,GI50,A498,269 nM (active)
same,GI50,HCT-116,144 nM (active)
same,GI50,K562,36.2 nM (active)
same,GI50,OVCAR-4,35100 nM (inactive)
same,GI50,SN12C,353 nM (active)
same,GI50,LOX IMVI,189 nM (active)
same,GI50,NCI-H226,561 nM (active)
same,GI50,SF-539,155 nM (active)
same,GI50,DU-145,337 nM (active)
same,GI50,SF-295,158 nM (active)
same,GI50,RPMI-8226,154 nM (active)
same,GI50,MDA-MB-231,525 nM (active)
same,GI50,SK-MEL-2,4850 nM (inactive)
same,GI50,ACHN,168 nM (active)
same,GI50,HT-29,6870 nM (inactive)
same,GI50,SK-OV-3,463 nM (active)
same,GI50,IGROV-1,861 nM (active)
same,GI50,Malme-3M,294 nM (active)
same,GI50,MDA-N,21.2 nM (active)
same,GI50,CAKI-1,164 nM (active)
same,GI50,MDA-MB-435,19.7 nM (active)
